{"source": "patent EP2958945B1", "about": "“COMBINATION THERAPY INVOLVING ANTIBODIES AGAINST CLAUDIN 18.2 FOR TREATMENT OF CANCER” (Astellas Pharma Inc., priority 2013, dated 2014)", "format_in_all_cases": "cell-based, human", "key": {"BxPC3-LVT": {"test_system": "BxPC3-LVT", "assay": "Inhibition of proliferation (XTT), BxPC3-LVT", "details": "exposed for 4 days", "procedure": "(§1) To analyze dose-response curves of each chemotherapeutic agent, a proliferation assay was performed. Table 6: Pancreas cancer cell lines to analyze efficacy of gemcitabine or oxaliplatin\n(§2) Cells were seeded in 96well plates and after 4-6 hours gemcitabine or oxaliplatin was added in following concentrations: 1000, 500, 250, 100 and 20 ng/ml. The proliferation assay was incubated for 4 days at 37°C and 5% CO2. 50 µl XTT complete reagent (50 parts XTT + 1 part coupl. reagent mixed) was added and incubated at 37°C. Measurement of absorbance (cells plus supernatant) was done with the Tecan Safire after 3 h and 4 h. Inhibition of proliferation was calculated compared to medium values set as 100%. EC50 values for gemcitabine and oxaliplatin were calculated in the GraphPad Prism program."}, "Capanl-LVT": {"test_system": "Capanl-LVT", "assay": "Inhibition of proliferation (XTT), Capanl-LVT", "details": "exposed for 4 days", "procedure": "as §1, §2"}, "DANG": {"test_system": "DANG", "assay": "Inhibition of proliferation (XTT), DANG", "details": "exposed for 4 days", "procedure": "as §1, §2"}, "MiaPaCa-2-LVT": {"test_system": "MiaPaCa-2-LVT", "assay": "Inhibition of proliferation (XTT), MiaPaCa-2-LVT", "details": "exposed for 4 days", "procedure": "as §1, §2"}, "Kato III cells": {"test_system": "Kato III cells", "assay": "Cell cycle analysis and cell growth, Kato III", "details": "Kato III; 5-FU 10 or 100 ng/ml, oxaliplatin 50 or 500 ng/ml; 96 hours", "procedure": "Kato III cells, a human gastric tumor cell line, was cultivated in RPMI 1640 medium (Invitrogen) containing 20% FCS (Perbio) and 2 mM Glutamax (Invitrogen) at 37°C and 5% CO2, with or without cytostatic compounds. 5-FU (Neofluor from NeoCorp AG) was tested at a concentration of 10 or 100 ng/ml, and oxaliplatin (Hospira) was tested at a concentration of 50 or 500 ng/ml. […] Cells were harvested with EDTA/trypsin, washed and analysed.\nCell cycle stages were determined based on measurement of cellular DNA content. This allows one to discriminate between cells in the G1-, S- or G2-phase of the cell cycle. In the S-phase DNA duplication occurs whereas in the G2-phase cells grow and prepare for mitosis. Cell cycle analysis was done using the CycleTEST PLUS DNA Reagent Kit from BD Biosciences following the manufacturer's protocol. Flow cytometry acquisition and analysis were performed by using BD FACS CantoII (BD Biosciences) and FlowJo (Tree Star) software.\nKato III cells were pretreated for 4 days with Irinotecan or Docetaxel and analysed for CLDN18.2 expression and cell cycle arrest."}}}
{"smiles": "O=C1[O][Pt]2([NH][C@@H]3CCCC[C@H]3[NH]2)[O]C1=O", "note": "[oxaliplatin, [(1R,2R)-cyclohexane-1,2-diamine](ethanedioato-O,O')platinum(II)]", "values": [{"measurement": "IC50 Inhibition of Proliferation", "setting": "BxPC3-LVT", "value": "0.5 to 1", "unit": "µg/mL"}, {"measurement": "IC50 Inhibition of Proliferation", "setting": "Capanl-LVT", "value": "~0.1", "unit": "µg/mL"}, {"measurement": "IC50 Inhibition of Proliferation", "setting": "DANG", "value": "~0.5", "unit": "µg/mL"}, {"measurement": "IC50 Inhibition of Proliferation", "setting": "MiaPaCa-2-LVT", "value": "0.05 to 0.1", "unit": "µg/mL"}, {"measurement": "cell cycle phase distribution", "setting": "Kato III cells", "value": "enrichment of cells predominantly in the G1- and G2-phases"}]}
